Several values for one entry are separate records, joined by “and”; a condition that tells them apart may be missing. Equal values may be shown once.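 Interpolation was linear, between the two tested concentrations surrounding the appropriate level; five concentrations were tested over 48 hours in 96-well plates. TGI is the concentration that stops growth completely.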 Where a SMILES comes first, the peptide text is derived from it. [ ]: non-standard residue; d: D form. The star is where a group is joined. NMeF = CN[CH](Cc1ccccc1)C(=O)O; NMeV = CN[CH](C(=O)O)C(C)C; Boc = CC(C)(C)OC(=O)*
test system: UACC-257 melanoma; test: DTP human tumour cell line panel, 48 h

O=C1C=C(C2=CC(=O)C(=O)c3ccccc32)c2ccccc2C1=O and Cn1c2c(c3ccccc31)CC1c3c(c4ccccc4n3C)CC21 (configuration not stated) cannot be ordered by TGI: greater than 100 µM for the first, greater than 100 µM for the second.

C(=Nc1ccc(-c2nc3ccccc3[nH]2)cc1)c1cccs1 and O=P(Nc1ccc(Cl)cc1)(Oc1ccccc1)N(CCCl)CCCl (configuration not stated) cannot be ordered by TGI: greater than 100 µM for the first, greater than 100 µM for the second.

C1=CC2SSSC2C1 (configuration not stated) and C[N+](C)(C)CC1CCCCCCCCCCC1=O (configuration not stated) cannot be ordered by TGI: greater than 100 µM for the first, greater than 100 µM for the second.

For CCN(CC)CCNc1nc2ccc([N+](=O)[O-])cc2[n+]([O-])n1, the TGI was 31.2 µM.

test system: RPMI-8226 leukemia; test: DTP human tumour cell line panel, 48 h

CCN(CC)C(=O)Cn1c(C)cc2ccccc21 and c1ccc2c(c1)ccn2CCc1c[nH]c2ccccc12 cannot be ordered by TGI: greater than 100 µM for the first, greater than 10 µM for the second.

CC1(C)NC2C(=O)c3c([nH]c4ccccc34)[C@]3(C)CCC1CC23 (some centres not stated) and Cn1c2c(c3ccccc31)CC1c3c(c4ccccc4n3C)CC21 (configuration not stated) cannot be ordered by TGI: greater than 100 µM for the first, greater than 100 µM for the second.

COc1ccc2ccccc2c1/C=C/C(=O)c1ccccc1 and O=c1[nH]nc(-c2ccccc2)c2[nH]c3c4ccccc4ccc3c12 are within 1.5-fold of each other in TGI: 4.07 µM for the first, 3.57 µM for the second.

Going from O=C1C(CN2CCCCC2)CCC1CN1CCCCC1 (configuration not stated) to C[N+](C)(C)CC1CCCCCCCCCCC1=O (configuration not stated), the TGI rises from 28.4 µM to greater than 100 µM.

First: CC(C)[Si](OC1=C(C(=O)N(C)c2cccc(Cl)c2)CCCC1)(C(C)C)C(C)C
Second: CC(C)C(NC(=O)OC(C)(C)C)C(=O)N(C)C(Cc1ccccc1)C(=O)N(C)C(C(=O)O)C(C)C (stereo not drawn) (Boc-Val-[NMeF]-[NMeV]-OH; configuration not given here)
The TGI of the first is lower: 42.4 µM for the first, greater than 100 µM for the second.

Going from COc1cc(/C=C(\C#N)C(N)=O)cc(Br)c1O to COc1cc(Cn2c3c(c4cc(O)ccc42)Cc2ccccc2C3=O)cc(OC)c1, the TGI falls from greater than 100 µM to 26.5 µM.

COc1cc(C(=O)N(Cc2cccnc2)C(=S)N(Cc2cccnc2)C(=O)c2cc(OC)c(OC)c(OC)c2)cc(OC)c1OC and COc1cc(CNCc2cc(OC)c(OC)c(OC)c2)cc(OC)c1OC cannot be ordered by TGI: greater than 100 µM for the first, greater than 10 µM for the second.

Oc1c(CN2CCOCC2)ccc2cccnc12 and CCOCc1nc2c(OC)cc(-c3nc4ccc(N5CCN(C)CC5)cc4[nH]3)c(OC)c2[nH]1 cannot be ordered by TGI: greater than 10 µM for the first, greater than 100 µM for the second.

First: CC1NC(=O)CC(c2ccccc2)N(N=O)C1c1ccccc1 (configuration not stated)
Second: Cc1cc(S(=O)(=O)N=C2N(Cc3ccccc3)CCN2Cc2ccccc2)c(S)cc1Cl
The TGI of the first is lower: 90.8 µM for the first, greater than 100 µM for the second.

Compared with O=C(N/N=C\c1cccc2c([N+](=O)[O-])cccc12)Nc1ccccc1, O=C(NNC(=S)Nc1cccc(Cl)c1)c1cc(-c2ccccc2)nc2ccccc12 is 1.7-fold higher in TGI: 44 µM for the first, 75.3 µM for the second.

Compared with CCCCN1C(=O)N(c2ccc(OCC)cc2)C2N(CCCC)C1C(C)(C)C2(C)C (configuration not stated), Cc1cn(C2CC(N(O)Cc3ccccc3)C(CO[Si](C)(C)C(C)(C)C)O2)c(=O)[nH]c1=O (configuration not stated) is higher in TGI: 42 µM for the first, greater than 100 µM for the second.

Compared with CON(C)C(=O)CNC(=O)OCC1c2ccccc2-c2ccccc21, O=C1C=C(C2=CC(=O)C(=O)c3ccccc32)c2ccccc2C1=O is 2-fold lower in TGI: 91.7 µM for the first, 46.2 µM for the second.

CC(=O)OC(/C=C/c1ccccc1)=C(OC(C)C)/C1=C(\c2ccccc2)SCCCSC1=O and N=C(N)c1ccc(C(NC(=O)CNS(=O)(=O)c2ccc3ccccc3c2)P(=O)(Oc2ccccc2)Oc2ccccc2)cc1 (configuration not stated) cannot be ordered by TGI: greater than 100 µM for the first, greater than 100 µM for the second.

O=Cc1c(C(=O)O)[nH]c(=O)[nH]c1=O and Nc1cc2[nH]c(=O)c(=O)[nH]c2cc1N cannot be ordered by TGI: greater than 100 µM for the first, greater than 100 µM for the second.

First: C(=Nc1ccc(-c2nc3ccccc3[nH]2)cc1)c1cccs1
Second: CCN(CC)CCNc1nc2ccc([N+](=O)[O-])cc2[n+]([O-])n1
The TGI of the first is higher: greater than 100 µM for the first, 44.9 µM for the second.

Compound C1=CC2SSSC2C1 (configuration not stated) has a TGI greater than 100 µM.

For CSc1ccc2c(cc1=O)[C@@H](NC(=O)c1ccc(N)cc1)CCc1cc(O)c(O)c(O)c1-2, the TGI was > 75 µM and 94.2 µM.

test system: HOP-18 NSCLC; test: DTP human tumour cell line panel, 48 h

Compared with COc1cc(/C=C(\C#N)C(N)=O)cc(Br)c1O, CCOC(=O)CC1(C(=O)OCC)c2[nH]c3ccccc3c2CCN1Cc1ccccc1 (configuration not stated) is lower in TGI: greater than 100 µM for the first, 54.4 µM for the second.

CC1NC(=O)CC(c2ccccc2)N(N=O)C1c1ccccc1 (configuration not stated) and O=P(Nc1ccc(Cl)cc1)(Oc1ccccc1)N(CCCl)CCCl (configuration not stated) cannot be ordered by TGI: greater than 100 µM for the first, greater than 100 µM for the second.

For C1=CC2SSSC2C1 (configuration not stated), the TGI was greater than 100 µM.

test system: DMS 114 small cell lung; test: DTP human tumour cell line panel, 48 h

First: C=CCCN1CCc2c([nH]c3ccccc23)C1C(=O)O (configuration not stated)
Second: CCOC(=O)CC1(C(=O)OCC)c2[nH]c3ccccc3c2CCN1Cc1ccccc1 (configuration not stated)
The TGI of the first is higher: greater than 100 µM for the first, 38.6 µM for the second.

CC(C)C(NC(=O)OC(C)(C)C)C(=O)N(C)C(Cc1ccccc1)C(=O)N(C)C(C(=O)O)C(C)C (stereo not drawn) (Boc-Val-[NMeF]-[NMeV]-OH; configuration not given here) and O=P(Nc1ccc(Cl)cc1)(Oc1ccccc1)N(CCCl)CCCl (configuration not stated) cannot be ordered by TGI: greater than 100 µM for the first, greater than 100 µM for the second.

Compound C1=CC2SSSC2C1 (configuration not stated) has a TGI greater than 100 µM.

test system: SF-539 CNS; test: DTP human tumour cell line panel, 48 h

First: CCN(CC)C(=O)Cn1c(C)cc2ccccc21
Second: COc1ccc2ccccc2c1/C=C/C(=O)c1ccccc1
The TGI of the first is higher: greater than 100 µM for the first, 7.23 µM for the second.

Work on CC1(C)NC2C(=O)c3c([nH]c4ccccc34)[C@]3(C)CCC1CC23 (some centres not stated) yielded a TGI greater than 100 µM.

— PubChem BioAssay (NCI)
